Experimental data from the NIST ThermoML archive (doi:10.1021/je8008182).
Where “and” joins values, the source holds several entries; their conditions need not be identical. Equal values may be shown once. Numbers after ± are expanded uncertainties.

Tests used:
[1] = Liquid; for mass density: Pycnometric method; for viscosity: Capillary tube (Ostwald / Ubbelohde) method
[2] = wn = mass fraction of the nth substance listed; conditions: 101 kPa, Liquid, w1 = 0.2; for mass density: Pycnometric method; for viscosity: Capillary tube (Ostwald / Ubbelohde) method
[3] = xn = mol fraction of the nth substance listed; conditions: 101 kPa, Liquid, x2 = 0; for viscosity: Capillary tube (Ostwald / Ubbelohde) method; for mass density: Pycnometric method

Cc1ccncc1 [4-methylpyridine]
[1]
Conditions	mass density, 101 kPa	mass density, 101.33 kPa [kg/m3]	viscosity, 101 kPa [mPa·s]	viscosity, 101.33 kPa [mPa·s]
283.15 K	958.2 ± 0.4 kg/m3	958.2 ± 0.4	–	–
293.15 K	955.1 ± 0.4 kg/m3	955.1 ± 0.5	–	–
298.15 K	955.4 ± 0.5 kg/m3 and 951.1 ± 0.5 kg/m3	951.1 ± 0.7	–	0.8723 ± 0.0078
303.15 K	951.1 ± 1.1 kg/m3	–	0.8175 ± 0.0073	–
308.15 K	941.3 ± 1.1 kg/m3	–	0.7774 ± 0.0069	–
313.15 K	936.6 ± 0.8 kg/m3	–	0.7368 ± 0.0067	–
318.15 K	932.1 ± 0.7 kg/m3	–	0.6855 ± 0.0063	–
323.15 K	927.7 ± 0.8 kg/m3	–	0.6505 ± 0.0061	–
328.15 K	923.2 ± 0.8 kg/m3	–	0.5905 ± 0.0058	–
333.15 K	918.5 ± 0.8 kg/m3	–	0.5329 ± 0.0054	–
338.15 K	914 ± 0.8 kg/m3	–	0.4815 ± 0.005	–

O=S(=O)(O)O [sulfuric acid] + O
[2]
Conditions	mass density [kg/m3]	viscosity [mPa·s]
283.15 K	1145 ± 0.6	–
293.15 K	1139.6 ± 0.6	1.543 ± 0.014
298.15 K	1136.4 ± 0.6	–
303.15 K	1133.7 ± 0.6	1.21 ± 0.011
313.15 K	1127.8 ± 0.6	0.987 ± 0.0089
323.15 K	1121.9 ± 0.6	0.824 ± 0.0074
333.15 K	1115.7 ± 0.7	0.716 ± 0.0064
343.15 K	1108.9 ± 0.7	0.638 ± 0.0057

O [water]
[1], 101 kPa
Conditions	mass density [kg/m3]	viscosity [mPa·s]
298.15 K	–	0.8903 ± 0.0081
303.15 K	–	0.7973 ± 0.0074
308.15 K	–	0.719 ± 0.0067
313.15 K	–	0.6526 ± 0.0061
318.15 K	–	0.5972 ± 0.0056
323.15 K	988 ± 0.5	0.5468 ± 0.0052
328.15 K	985.7 ± 0.5	0.5042 ± 0.0048
333.15 K	983.2 ± 0.6	0.4669 ± 0.0045
338.15 K	980.6 ± 0.6	0.4341 ± 0.0042

O [water] + Cc1ccncc1
[3]
Conditions	mass density [kg/m3]	viscosity [mPa·s]
298.15 K	–	0.8903 ± 0.0081
303.15 K	–	0.7973 ± 0.0074
308.15 K	–	0.719 ± 0.0067
313.15 K	–	0.6526 ± 0.0061
318.15 K	–	0.5972 ± 0.0056
323.15 K	988 ± 0.5	0.5468 ± 0.0052
328.15 K	985.7 ± 0.5	0.5042 ± 0.0048
333.15 K	983.2 ± 0.6	0.4669 ± 0.0045
338.15 K	980.6 ± 0.6	0.4341 ± 0.0042
